The values below come from patent US10588929B1, “Method of synthesizing watermelon seed particles” (KING SAUD UNIVERSITY, priority 2019, dated 2020).

Common to all, as to assay: Zone of inhibition, diffusion agar technique
Common to all, as to format: cell-based
Conditions in all cases: beyond well diameter of 6 mm, 100 μg of nanoparticles

Experiment [1] relates to Aspergillus fumigatus (RCMB 02567). Here is the method:
(§1) Watermelon seed nanoparticles synthesized according to Example 1 were tested for antimicrobial activity against gram negative bacteria, gram positive bacteria, and fungi. Zone of inhibition studies were performed, the results of which are summarized in Table 2 (displaying mean zone of inhibition in mm ± standard deviation beyond well diameter of 6 mm). Testing used the diffusion agar technique with 6.0 mm well diameter and administration of 100 μg of the watermelon seed nanoparticles.

The subject of experiment [2] is Bacillus subtilis (RCMB 010068). Here is the method:
as §1

Experiment [3] deals with Streptococcus pneumoniae (RCMB 010011). Here is the method: as §1
Experiment [4] has as its system Escherichia coli (RCMB 010054). Here is the method:
as §1

For the molecule `C[C@@H]1[C@H](O)[C@@H](C)/C=C/C=C/C=C/C=C/C=C/C=C/C=C/[C@H](O[C@@H]2O[C@H](C)[C@@H](O)[C@H](N)[C@@H]2O)C[C@@H]2O[C@](O)(C[C@@H](O)C[C@@H](O)[C@H](O)CC[C@@H](O)C[C@@H](O)CC(=O)O[C@H]1C)C[C@H](O)[C@H]2C(=O)O` [Amphotericin B], the “mean zone of inhibition” value in experiment [1] was 21.7 ± 1.5 mm.
Turning to `CC1(C)S[C@@H]2[C@H](NC(=O)[C@H](N)c3ccccc3)C(=O)N2[C@H]1C(=O)O` [Ampicillin], the “mean zone of inhibition” value in experiment [2] came to 31.3 ± 1.5 mm; in experiment [3], 21.0 ± 1.0 mm.
Take Gentamicin: in experiment [4], the “mean zone of inhibition” value is 20.3 ± 0.58 mm.
